# Source: PubChem BioAssay (NCI)
# Values joined by “and” are separate entries in the source; they are usually repeats but may differ in a detail not shown here. Identical values can stand only once.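 Dose response: 5 concentrations. Exposure: 48 h. Format: 96-well plates. Endpoint: linear interpolation; highest concentration if not reached. GI50 is the concentration that inhibits growth by half. At the TGI there is no net growth.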
# System: CCRF-CEM leukemia
# Assay: NCI-60 cell line screen, 48 h
SMILES,TGI,GI50 [µM]
Nc1ccccc1C(=O)/C=C/c1c(O)ccc2ccccc12,> 100 µM,–
CCC1CN2CCc3cc(OC)c(OC)cc3C2CC1CC1c2cc(OC)c(OC)cc2CCN1C(=O)C1CCCN1 (stereo unspecified),64.8 µM,–
CC(C(=O)c1ccc(Cl)cc1)/C(=N/NC(=O)NN)C(=O)Nc1cccc(C(F)(F)F)c1 (stereo unspecified),> 100 µM,–
CCOP(=O)(OCC)C(C(=O)OC)C(=O)C(=O)Nc1ccc(Cl)cc1Cl (stereo unspecified),> 100 µM,–
CC(C)=C1CCC(CN(C)C)C1=O (stereo unspecified),27.7 µM,–
COc1cccc(/C=N/[N-]C(=O)c2ccncc2)c1[O-].COc1cccc(/C=N/[N-]C(=O)c2ccncc2)c1[O-].[O]=[U](=[O])([OH2+])[OH2+],> 30.7 µM,2.06
ClC(Cl)=C1C(=C(Cl)Cl)C(Cl)(Cl)C1(Cl)Cl,1.5 µM,0.334
CC(C)(C)c1ccc2c(c1)S(=O)(=O)Nc1ccc(Cl)cc1NS(=O)(=O)c1cc(C(C)(C)C)ccc1OCCOCCOCCO2,> 100 µM,–
CO[C@H]1Nc2c(ccc(C)c2O)C(=O)N2C=C(/C=C/C(N)=O)C[C@@H]12,> 50.6 µM,–
CCNC(=O)/C(=C/c1ccc(OC)cc1)c1cc(OC)c(OC)c(OC)c1,> 100 µM,–
N#CC(=Nc1ccccc1N(C(=O)c1ccccc1)C(=O)c1ccccc1)c1ccccc1,> 31.2 µM,–
COC(=O)C(=O)C(C(C)=O)C(=O)NCc1ccc(OC)c(OC)c1 (stereo unspecified),> 100 µM,–
Nc1c(-c2ccccc2-c2c(N)[n+]([O-])c3ccccc3[n+]2[O-])[n+]([O-])c2ccccc2[n+]1[O-],> 28.4 µM,–
CCOC(=O)NC(=O)c1cn(C(CC)COC(=O)NCCCCCCNC(=O)OCC(CC)n2cc(C(=O)NC(=O)OCC)c(=O)[nH]c2=O)c(=O)[nH]c1=O (stereo unspecified),> 100 µM,–
CCN1c2ccccc2-c2c3c1cc(C)cc3c1ccccc1[n+]2CC,2.83 µM,–
Cc1cccc(C2=C/C(=C(\SS/C(C(=O)c3ccc(OCC(=O)O)c(Cl)c3Cl)=C3\C=C(c4cccc(C)c4)SS3)C(=O)c3ccc(OCC(=O)O)c(Cl)c3Cl)SS2)c1,19.4 µM,–
CC(=O)N1CCN(c2ccc(OCC3COC(Cn4ccnc4)(c4ccc(Cl)cc4Cl)O3)cc2)CC1 (stereo unspecified),> 100 µM,–
O=C(Cc1nc2c3c(ccc2[nH]c1=O)C(=O)c1ccccc1C3=O)C(=O)Nc1ccccc1[N+](=O)[O-],11.6 µM,–
Nc1nc(-c2ccc(Cl)c([N+](=O)[O-])c2)cs1,> 100 µM,–
COc1cc(/C=C2\[C@H]3c4c(c(OC)c(C)c(OC)c4OC)CC(C(=O)N2Cc2ccccc2)N3C)c(OC)c(C)c1OC,42.5 µM,–
CN(C)C(=S)SSC(=S)N(C)C,37.2 µM and 5.68 µM,–
COC(=O)/C([Se]c1c(C)cc(C)cc1C)=C(/[Se]c1c(C)cc(C)cc1C)C(=O)OC,> 100 µM,–
NC(=O)C(=O)CC(=O)c1ccccc1NC1=CC(=O)C(=O)c2ccccc21,> 100 µM,–
Cc1cc2c(c(C(N)=O)c1C)-c1ccccc1C2=O,> 100 µM,–
COC(=O)/C(=N/O)C(C(=O)C=C(C)C)C(=O)C(=O)Nc1nc2ccc([N+](=O)[O-])cc2s1 (stereo unspecified),74.7 µM,–
Cc1ccccc1C1=[N+]([O-])c2ccc(Cl)cc2C1=O,12.5 µM,–
Cc1[nH]c2ccccc2c1C1Cc2ccccc2N1C(=O)C#Cc1ccc([N+](=O)[O-])cc1 (stereo unspecified),> 100 µM,–
CCOC(=O)NC(=O)c1cn(C2CCCCC2)c(=O)[nH]c1=O,> 100 µM,–

# System: HCT-116 colon
# Assay: NCI-60 cell line screen, 48 h
SMILES,TGI,GI50 [µM]
Nc1ccccc1C(=O)/C=C/c1c(O)ccc2ccccc12,> 100 µM,–
CCC1CN2CCc3cc(OC)c(OC)cc3C2CC1CC1c2cc(OC)c(OC)cc2CCN1C(=O)C1CCCN1 (stereo unspecified),55 µM,–
CC(C(=O)c1ccc(Cl)cc1)/C(=N/NC(=O)NN)C(=O)Nc1cccc(C(F)(F)F)c1 (stereo unspecified),> 100 µM,–
CCOP(=O)(OCC)C(C(=O)OC)C(=O)C(=O)Nc1ccc(Cl)cc1Cl (stereo unspecified),> 100 µM,–
CC(C)=C1CCC(CN(C)C)C1=O (stereo unspecified),30.3 µM,–
COc1cccc(/C=N/[N-]C(=O)c2ccncc2)c1[O-].COc1cccc(/C=N/[N-]C(=O)c2ccncc2)c1[O-].[O]=[U](=[O])([OH2+])[OH2+],> 100 µM,4.8
ClC(Cl)=C1C(=C(Cl)Cl)C(Cl)(Cl)C1(Cl)Cl,3.73 µM,–
CC(C)(C)c1ccc2c(c1)S(=O)(=O)Nc1ccc(Cl)cc1NS(=O)(=O)c1cc(C(C)(C)C)ccc1OCCOCCOCCO2,> 100 µM,–
CCNC(=O)/C(=C/c1ccc(OC)cc1)c1cc(OC)c(OC)c(OC)c1,> 100 µM,–
N#CC(=Nc1ccccc1N(C(=O)c1ccccc1)C(=O)c1ccccc1)c1ccccc1,> 44.8 µM,–
COC(=O)C(=O)C(C(C)=O)C(=O)NCc1ccc(OC)c(OC)c1 (stereo unspecified),> 100 µM,–
Nc1c(-c2ccccc2-c2c(N)[n+]([O-])c3ccccc3[n+]2[O-])[n+]([O-])c2ccccc2[n+]1[O-],74.6 µM,–
CCOC(=O)NC(=O)c1cn(C(CC)COC(=O)NCCCCCCNC(=O)OCC(CC)n2cc(C(=O)NC(=O)OCC)c(=O)[nH]c2=O)c(=O)[nH]c1=O (stereo unspecified),> 100 µM,–
O=C(CC(=O)C1CCOC1=O)C(=O)Nc1cccc(Cl)c1 (stereo unspecified),> 100 µM,–
CCN1c2ccccc2-c2c3c1cc(C)cc3c1ccccc1[n+]2CC,3.89 µM,–
Cc1cccc(C2=C/C(=C(\SS/C(C(=O)c3ccc(OCC(=O)O)c(Cl)c3Cl)=C3\C=C(c4cccc(C)c4)SS3)C(=O)c3ccc(OCC(=O)O)c(Cl)c3Cl)SS2)c1,> 53.8 µM,–
CC(=O)N1CCN(c2ccc(OCC3COC(Cn4ccnc4)(c4ccc(Cl)cc4Cl)O3)cc2)CC1 (stereo unspecified),76.6 µM,–
O=C(Cc1nc2c3c(ccc2[nH]c1=O)C(=O)c1ccccc1C3=O)C(=O)Nc1ccccc1[N+](=O)[O-],65.4 µM,–
CC1=C(C#N)C(=O)CC(c2ccc(Cl)cc2)N(C)N1 (stereo unspecified),> 100 µM,–
Nc1nc(-c2ccc(Cl)c([N+](=O)[O-])c2)cs1,> 100 µM,–
COc1cc(/C=C2\[C@H]3c4c(c(OC)c(C)c(OC)c4OC)CC(C(=O)N2Cc2ccccc2)N3C)c(OC)c(C)c1OC,> 100 µM,–
CN(C)C(=S)SSC(=S)N(C)C,28.9 µM and 30.4 µM and > 55.9 µM,–
O=C(N/C(=C\c1ccc([N+](=O)[O-])cc1)c1nc2ccccc2[nH]1)c1ccccc1,> 100 µM,–
COC(=O)/C([Se]c1c(C)cc(C)cc1C)=C(/[Se]c1c(C)cc(C)cc1C)C(=O)OC,> 100 µM,–
NC(=O)C(=O)CC(=O)c1ccccc1NC1=CC(=O)C(=O)c2ccccc21,> 100 µM,–
Cc1cc2c(c(C(N)=O)c1C)-c1ccccc1C2=O,> 100 µM,–
COC(=O)/C(=N/O)C(C(=O)C=C(C)C)C(=O)C(=O)Nc1nc2ccc([N+](=O)[O-])cc2s1 (stereo unspecified),> 100 µM,–
Cc1ccccc1C1=[N+]([O-])c2ccc(Cl)cc2C1=O,19.5 µM,–
Cc1[nH]c2ccccc2c1C1Cc2ccccc2N1C(=O)C#Cc1ccc([N+](=O)[O-])cc1 (stereo unspecified),> 100 µM,–
CCOC(=O)NC(=O)c1cn(C2CCCCC2)c(=O)[nH]c1=O,> 100 µM,–

# System: HOP-18 NSCLC
# Assay: NCI-60 cell line screen, 48 h
SMILES,TGI [µM],GI50 [µM]
Nc1ccccc1C(=O)/C=C/c1c(O)ccc2ccccc12,> 100,–
CCC1CN2CCc3cc(OC)c(OC)cc3C2CC1CC1c2cc(OC)c(OC)cc2CCN1C(=O)C1CCCN1 (stereo unspecified),> 100,–
CC(C(=O)c1ccc(Cl)cc1)/C(=N/NC(=O)NN)C(=O)Nc1cccc(C(F)(F)F)c1 (stereo unspecified),> 100,–
CCOP(=O)(OCC)C(C(=O)OC)C(=O)C(=O)Nc1ccc(Cl)cc1Cl (stereo unspecified),> 100,–
CC(C)=C1CCC(CN(C)C)C1=O (stereo unspecified),36.6,–
COc1cccc(/C=N/[N-]C(=O)c2ccncc2)c1[O-].COc1cccc(/C=N/[N-]C(=O)c2ccncc2)c1[O-].[O]=[U](=[O])([OH2+])[OH2+],88.6,12.1
ClC(Cl)=C1C(=C(Cl)Cl)C(Cl)(Cl)C1(Cl)Cl,19.4,–
CC(C)(C)c1ccc2c(c1)S(=O)(=O)Nc1ccc(Cl)cc1NS(=O)(=O)c1cc(C(C)(C)C)ccc1OCCOCCOCCO2,> 100,–
CO[C@H]1Nc2c(ccc(C)c2O)C(=O)N2C=C(/C=C/C(N)=O)C[C@@H]12,> 100,–
